# In US6900200B2, “Tricyclic hydroxy carboxamides and derivatives thereof tocolytic oxytocin receptor antagonists” (Wyeth, priority 2001, dated 2005):
# Target: T1, human vasopressin V1a receptor subtype (Homo sapiens, UniProt P37288)
# T1 construct: host or cells: CHO cells; pZeoSV vector for the Thibonnier line
# Test: Vasopressin binding in CHO cell membranes expressing human vasopressin V1a subtype receptors ([3H]Manning ligand radioligand binding)
# Settings: @ 100 nM
# Description: Vasopressin Binding in Chinese Hamster Ovary Cell Membranes Expressing Human Vasopressin V1a Subtype Receptors
# Chinese hamster ovary cells (CHO cells) stably transfected with the human vasopressin V1a subtype receptors were either obtained from BioSignal Inc., 1744 rue Williams, Montreal, Quebec, Canada or obtained from M. Thibonnier, Case Western Reserve University School of Medicine, Cleveland, Ohio.
# A. Passaging and Amplification of Cells
# CHO cells transfected with the human vasopressin V1a subtype receptors obtained from M. Thibonnier (pZeoSV vector) are allowed to grow to confluency (approx. >90%) in T-150 flasks under sterile conditions, in a cell culture medium of F-12 Nutrient Mixture (HAM) with L-glutamine (Gibco Cat. #11765-054) containing 15 mM HEPES (Gibco Cat. #15630-080), 1% antibiotic/antimycotic (add 5 mL 100×, Gibco Cat. #15240-062 per 500 mL F-12), 250 μg/mL Zeocin (add 1.25 mL of 100 mg/mL Invitrogen R-250-01 per 500 mL F-12) and 10% Fetal Bovine Serum (Qualified, heat inactivated, Gibco Cat. #16140-063). The medium is removed by aspiration and the cells are washed with 10 mL of Hank's Balanced Salt solution (Gibco Cat. #14175-095). The salt solution is removed by aspiration and the cells are trypsinized with 5 mL of trypsin-EDTA (0.05% trypsin, 0.53 mM EDTA-4Na, Gibco Cat. #25300-070) for 1 min. The trypsin is removed by aspiration and the cells dislodged by tapping. Cell Culture medium (e.g. 30 mL for 1:30 split) is immediately added and mixed well to inactivate trypsin. 1 mL of detached cells is added to new culture flasks containing fresh cell culture medium (e.g., into 25 mL per T-150 flask), and mixed gently. The cells are incubated at 37° C. in 5% CO2. The medium is changed at 3 to 4 days interval (or as appropriate). The cells grow to confluency (approx. >75%-95%) within 7-8 days. All steps are done under sterile conditions.
# The cells are washed twice gently with Hank's Balanced Salt solution (e.g,. use 10 mL per T-150 flask). The excess is removed and the cells are bathed for 15-30 min. in an enzyme-free Cell Dissociation Buffer (e.g. use 8 mL Hank's Based, Gibco Cat. #13150-016 per T-150 flask) until the cells are loosened. The contents are transferred to centrifuge tubes (50 mL) kept in an ice bath. All subsequent steps are done at 4° C. The tubes are centrifuged at 300×g for 15 min (1380 rpm on SORVAL, Model RT6000D, using the rotor for 50 mL tubes). The supernatant is discarded and the cells suspended in homogenizing buffer(10 mM Tris-HCl containing 0.25 M sucrose and 1 mM EDTA, pH 7.4) ensuring that the volume of the buffer is about ten times the volume of the cell pellet. The cells are pooled into a centrifuge tube (50 mL) and homogenized with Polytron at setting 6 for 10 sec. The homogenate is transferred into a Potter-Elvjehm homogenizer and homogenized with 3 strokes. The homogenate is centrifuged at 1500×g for 10 min at 4° C. (3100 rpm using SORVAL, model RT6000D, using the rotor for 50 mL tubes). The pellet is discarded. The supernatant is centrifuged at 100,000×g for 60 min. at 4° C. (Beckman L8-80M ultracentrifuge; spin at 37,500 rpm with rotor type 70 Ti for 50 mL tubes; 38,000 rpm with type 80Ti for 15 mL tubes; or 35,800 rpm with rotor type 45Ti). The supernantant is discarded and the pellet suspended in 3 to 4 mL of Tris buffer (50 mM TRIS—HCl, pH 7.4). The protein content is estimated by the Bradford or Lowry method. The volume of the membrane suspension is adjusted with the membrane buffer (50 mM Tris-HCl containing 0.1% BSA and 0.1 mM PMSF) to give 3.0 mg/mL (or as appropriate) of protein. The membranes are aliquoted and stored at −70° C.
# C. Radioligand Binding Assay […]
# T1 sequence (P37288 whole entry): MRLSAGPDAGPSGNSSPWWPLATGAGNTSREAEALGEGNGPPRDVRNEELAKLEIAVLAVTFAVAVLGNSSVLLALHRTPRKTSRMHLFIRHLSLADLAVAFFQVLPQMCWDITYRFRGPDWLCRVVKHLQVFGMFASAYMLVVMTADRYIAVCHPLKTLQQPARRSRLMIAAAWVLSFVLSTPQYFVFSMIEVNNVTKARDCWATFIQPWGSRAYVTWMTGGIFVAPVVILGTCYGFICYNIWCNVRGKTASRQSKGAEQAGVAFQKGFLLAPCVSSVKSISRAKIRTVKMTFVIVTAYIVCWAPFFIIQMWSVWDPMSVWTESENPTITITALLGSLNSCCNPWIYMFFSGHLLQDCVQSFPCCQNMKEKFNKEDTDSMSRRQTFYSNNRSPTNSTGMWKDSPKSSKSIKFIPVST
row,inhibition at 0.1 µM [%],Compound
1,59,"COc1ccccc1-c1ccc(C(=O)N2Cc3ccc(C(=O)N(C)C[C@H](O)CO)n3Cc3ccccc32)cc1C (single isomer, unassigned) [Example 15]"
2,68,"COc1ccccc1-c1ccc(C(=O)N2Cc3ccc(C(=O)N(C)C[C@@H](O)CO)n3Cc3ccccc32)cc1C (single isomer, unassigned) [Example 16]"
3,7,"Cc1cc(C(=O)N2Cc3ccc(C(=O)NC(CO)(CO)CO)n3Cc3ccccc32)ccc1-c1ccccc1C(F)(F)F [Example 3, 10-[(2-Methyl-2′-trifluoromethyl-[1,1′-biphenyl]-4-yl)carbonyl]-10,11-dihydro-5H-pyrrolo[2,1-c][1,4]benzodiazepine-3-carboxylic acid (2-hydroxy-1,1-bis-hydroxymethyl-ethyl)-amide]"
4,5,"O=C(c1ccc2n1Cc1ccccc1N(C(=O)c1ccc(-c3cccc4ccccc34)cc1Cl)C2)N1CCN(CCO)CC1 [Example 25, 2-{4-[10-{[2-Chloro-4-(naphthalen-1-yl)phenyl]carbonyl}-(10,11-dihydro-5H-pyrrolo[2,1-c][1,4]benzodiazepin-3-yl)carbonyl]piperazine-1-yl}-1-hydroxyethane]"

# Same assay, conditions: value printed in parentheses
row,Compound,IC50 [µM]
1,"Cc1cc(C(=O)N2Cc3ccc(C(=O)N(C)C[C@H](O)[C@@H](O)[C@H](O)[C@H](O)CO)n3Cc3ccccc32)ccc1-c1ccccc1C(F)(F)F [Example 4, 10-[(2-Methyl-2′-trifluoromethyl-[1,1′-biphenyl]-4-yl)carbonyl]-10,11-dihydro-5H-pyrrolo[2,1-c][1,4]benzodiazepine-3-carboxylic acid methyl-((2S,3R,4R,5R)-2,3,4,5,6-pentahydroxy-hexyl)-amide]",1.43
2,"Cc1cc(C(=O)N2Cc3ccc(C(=O)N4CCN(C[C@@H](O)CO)CC4)n3Cc3ccccc32)ccc1-c1ccccc1C(F)(F)F [Example 6, (2R)-3-{4-[(10-{[2-Methyl-2′-trifluoromethyl-[1,1′-biphenyl]-4-yl]carbonyl}-10,11-dihydro-5H-pyrrolo[2,1-c][1,4]benzodiazepin-3-yl)carbonyl]piperazin-1-yl}propane-1,2-diol]",2.41
3,"COC[C@@H](O)CN1CCN(C(=O)c2ccc3n2Cc2ccccc2N(C(=O)c2ccc(-c4ccccc4C(F)(F)F)c(C)c2)C3)CC1 [Example 9, [3-({4-[(2S)-2-Hydroxy-3-methoxypropyl]-1-piperazinyl}carbonyl)-5H-pyrrolo[2,1-c][1,4]benzodiazepin-10(11H)-yl][2-methyl-2′-trifluoromethyl-[1,1′-biphenyl]-4-yl]methanone]",2.01
4,"Cc1cc(C(=O)N2Cc3ccc(C(=O)N(C)CC4COC(=O)O4)n3Cc3ccccc32)ccc1-c1ccccc1C(F)(F)F (stereo not drawn) [Example 11, 10-[(2-Methyl-2′-trifluoromethyl-[1,1′-biphenyl]-4-yl)carbonyl]-10,11-dihydro-5H-pyrrolo[2,1-c][1,4]benzodiazepine-3-carboxylic acid methyl-[(2-oxo-[1,3]dioxolan-4-yl)methyl]-amide]",1.37
5,"Cc1cc(C(=O)N2Cc3ccc(C(=O)N(C)C[C@@H]4OC(=O)O[C@H]4[C@H](O)[C@H]4COC(=O)O4)n3Cc3ccccc32)ccc1-c1ccccc1C(F)(F)F [Example 12, N-[((4S,5S)-5-{(R)-Hydroxy[(4R)-2-oxo-1,3-dioxolan-4-yl]methyl}-2-oxo-1,3-dioxolan-4-yl)methyl]-N-methyl-10-{[2-methyl-2′-(trifluoromethyl)[1,1′-biphenyl]-4-yl]carbonyl}-10,11-dihydro-5H-pyrrolo[2,1-c]benzodiazepine-3-carboxamide]",1.61
6,"CC(=O)OCC(CN(C)C(=O)c1ccc2n1Cc1ccccc1N(C(=O)c1ccc(-c3ccccc3C(F)(F)F)c(C)c1)C2)OC(C)=O (stereo not drawn) [Example 13, 2-(Acetyloxy)-1-({methyl[(10-{[2-methyl-2′-trifluoromethyl-[1,1′-biphenyl]-4-yl]carbonyl}-10,11-dihydro-5H-pyrrolo[2,1-c][1,4]benzodiazepin-3-yl)carbonyl]amino}methyl)ethyl acetate]",1.2
7,"COc1cc(-c2ccccc2C(F)(F)F)c(Cl)cc1C(=O)N1Cc2ccc(C(=O)N(C)C[C@H](O)[C@@H](O)[C@H](O)[C@H](O)CO)n2Cc2ccccc21 [Example 20, 10-{[6-Chloro-3-methoxy-2′-trifluoromethyl-[1,1′-biphenyl]-4-yl]carbonyl}-N-methyl-N-[(2S,3R,4R,5R)-2,3,4,5,6-pentahydroxyhexyl]-10,11-dihydro-5H-pyrrolo[2,1-c][1,4]benzodiazepine-3-carboxamide]",3.1

# Next, values leading:
row,IC50 [µM],Compound
1,1.08,"COc1cc(C(=O)N2Cc3ccc(C(=O)N(C)C[C@@H](O)[C@H](O)[C@H](O)[C@@H](O)CO)n3Cc3ccccc32)ccc1-c1ccccc1C(F)(F)F (stereo in doubt) [Example 23, 10-{[2-Methoxy-2′-trifluoromethyl-[1,1′-biphenyl]-4-yl]carbonyl}-N-methyl-N-[(2R,3S,4R,5S)-2,3,4,5,6-pentahydroxyhexyl]-10,11-dihydro-5H-pyrrolo[2,1-c][1,4]benzodiazepine-3-carboxamide]"
2,1.39,"Cc1cc(C(=O)N2Cc3ccc(C(=O)N(CCO)CCO)n3Cc3ccccc32)ccc1-c1ccccc1C(F)(F)F [Example 1, 10-[(2-Methyl-2′-trifluoromethyl-[1,1′-biphenyl]-4-yl)carbonyl]-10,11-dihydro-5H-pyrrolo[2,1-c][1,4]benzodiazepine-3-carboxylic acid bis-(2-hydroxy-ethyl)-amide]"
3,2.72,"Cc1cc(C(=O)N2Cc3ccc(C(=O)N4CCN(C[C@H](O)CO)CC4)n3Cc3ccccc32)ccc1-c1ccccc1C(F)(F)F [Example 5, (2S)-3-{4-[(10-{[2-Methyl-2′-trifluoromethyl-[1,1′-biphenyl]-4-yl]carbonyl}-10,11-dihydro-5H-pyrrolo[2,1-c][1,4]benzodiazepin-3-yl)carbonyl]piperazin-1-yl}propane-1,2-diol]"
4,1.97,"COC[C@H](O)CN1CCN(C(=O)c2ccc3n2Cc2ccccc2N(C(=O)c2ccc(-c4ccccc4C(F)(F)F)c(C)c2)C3)CC1 [Example 8, (2R)-1-Methoxy-3-{4-[(10-{[2-methyl-2′-trifluoromethyl-[1,1′-biphenyl]-4-yl]carbonyl}-10,11-dihydro-5H-pyrrolo[2,1-c][1,4]benzodiazepin-3-yl)carbonyl]piperazin-1-yl}propan-2-ol]"
5,1.8,"COCC(CN(C)C(=O)c1ccc2n1Cc1ccccc1N(C(=O)c1ccc(-c3ccccc3C(F)(F)F)c(C)c1)C2)OC (stereo not drawn) [Example 10, N-(2,3-Dimethoxypropyl)-N-methyl-10-{[2-methyl-2′-trifluoromethyl-[1,1′-biphenyl]-4-yl]carbonyl}-10,11-dihydro-5H-pyrrolo[2,1-c][1,4]benzodiazepine-3-carboxamide]"
6,0.144,"COc1ccccc1-c1ccc(C(=O)N2Cc3ccc(C(=O)N(C)CC(O)CO)n3Cc3ccccc32)cc1C (stereo not drawn) [Example 14, 10-[(2′-Methoxy-2-methyl-[1,1′-biphenyl]-4-yl)carbonyl]-10,11-dihydro-5H-pyrrolo[2,1-c][1,4]benzodiazepine-3-carboxylic acid (2,3-dihydroxy-propyl)-methyl-amide]"
7,0.227,"COc1ccccc1-c1ccc(C(=O)N2Cc3ccc(C(=O)N(C)C[C@H](O)[C@@H](O)[C@H](O)[C@H](O)CO)n3Cc3ccccc32)cc1C [Example 17, 10-[(2′-Methoxy-2-methyl-[1,1′-biphenyl]-4-yl)carbonyl]-10,11-dihydro-5H-pyrrolo[2,1-c][1,4]benzodiazepine-3-carboxylic acid methyl-[(2S,3R,4R, 5R)-2,3,4,5,6-pentahydroxy-hexyl)-amide]"
